Results: US20260373229A1, “TOPICALLY APPLICABLE PREPARATION FOR IMPROVING SKIN CONDITION” (priority 2022, published 2026)
Values after ≈ are worked out from the molar mass of the structure shown.

Experiments:
[1] = tested on: S. aureus DSM20231; assay: Growth of S. aureus DSM20231 in microtiter plates (OD600, aerobic, 24 h); type: cell-based, Staphylococcus aureus; details: for synergistic effect with ISW1-2 on S. aureus growth: with 0.00002% ISW1-2, FIGS. 3 to 10
Procedure: (§1) S. aureus DSM20231 and S. epidermidis ATTC12228 were incubated under aerobic conditions at 37 °C with constant shaking. The overnight cultures were diluted 1:10000 in MHB (Müller Hinton Broth: starch 1.5 g/l; meat infusion 2.0 g/l; peptone from casein (hydrolyzed) 17.5 g/l; pH: 7.4±0.2) and seeded in microtiter plates. […] These experiments were repeated in the presence of a non-inhibitory ISW1-2 concentration (0.00002% ISW1-2). To estimate bacterial growth, the optical density (OD) was measured photometrically at a wavelength of 600 nm (OD600). Increasing values indicate bacterial growth (mean value from three independent experiments).
Staphylococcus aureus DSM20231 was incubated without ISW1-2 (FIGS. 3, 5, 7, 9) and with a non-inhibitory concentration of 0.00002% ISW1-2 (FIGS. 4, 6, 8, 10), wherein different concentrations of licochalcone Extract; licochalcone A; licochalcone C and licochalcone E (0 μg/ml=control; 1 μg/ml; 2 μg/ml) were present. FIGS. 3 to 10 show the bacterial growth over 24 hours under the different conditions (mean values from three independent experiments).
(§2) Bacterial growth is measured by the increase in turbidity in the medium (OD600), i.e. an increase in OD over time indicates bacterial growth.
FIGS. 7 and 8 show the studies with ISW1-2 and licochalcone C. Four different amounts of licochalcone C were used (0%, control; 1 μg/ml; 2 μg/ml and 4 μg/ml), alone (FIG. 7) and with 0.00002% ISW1-2 (FIG. 8).
FIGS. 9 and 10 show the studies with ISW1-2 and licochalcone E. Three different amounts of licochalcone E were used (0%, control; 1 μg/ml; 2 μg/ml), alone (FIG. 9) and with 0.00002% ISW1-2 (FIG. 10).

[2] = tested on: S. epidermidis ATTC12228; assay: Growth of S. epidermidis 12228 in microtiter plates (OD600, aerobic, 24 h); type: cell-based, Staphylococcus epidermidis; details: for effect on growth of S. epidermidis (OD600): 1 μg/ml, 2 μg/ml, without ISW1-2, 24 h, FIGS. 11, 13, 15, 17
Procedure: as §1
In further comparative studies, the influence of the combination of compounds according to the invention was also determined on skin commensal germs, such as S. epidermidis (FIGS. 11 to 18).
For this purpose, Staphylococcus epidermidis 12228 was incubated without ISW1-2 (FIGS. 11, 13, 15, 17) and with a non-inhibitory concentration of 0.00002% ISW1-2 (FIGS. 12, 14, 16, 18), wherein different concentrations of licochalcone extract; licochalcone A; licochalcone C and licochalcone E (0 μg/ml=control; 1 μg/ml; 2 μg/ml) were present. The bacterial growth over 24 h under the different conditions is shown (mean values from three independent experiments).
as §2

[3] = tested on: C. acnes DSM1897; assay: Growth of C. acnes DSM1897 in microtiter plates (OD600, anaerobic, 5 days); type: cell-based, Cutibacterium acnes (Propionibacterium acnes)
Procedure: The effect of the preparations according to the invention on the growth of C. acnes, S. aureus and S. epidermidis was investigated in in vitro studies.
C. acnes DSM1897 was incubated under anaerobic conditions at 37 °C. The overnight culture was diluted 1:1000 in Caso medium (casein peptone 17 g/l; soybean meal peptone 3 g/l; sodium chloride 5 g/l; glucose 2.5 g/l; dipotassium hydrogen phosphate 2.5 g/l; pH 7.3±0.2) and seeded in microtiter plates. Different concentrations of the plant extract Glycyrrhiza inflata and licochalcone A (1 μg/ml, 2 μg/ml) were added, mixed and incubated anaerobically at 37 °C for 5 days. […] The optical density (OD) was measured photometrically at a wavelength of 600 nm (OD600) to estimate the growth of the bacteria. […]
Unless otherwise stated, the quantities refer to the weight of the compound per volume of medium, e.g. 1 μg/ml means 1 μg licochalcone A in 1 ml medium. The percentage quantities of ISW1-2 refer to the weight of ISW1-2 in relation to the total weight of the respective test preparation.
C. acnes 1897 was incubated without ISW1-2 (FIG. 1 shaded) and with a non-inhibitory concentration of 0.00001% ISW1-2 (FIG. 1 black), wherein different concentrations of licochalcone A Extract (0 μg/ml=control; 1 μg/ml; 2 μg/ml) were added. Bacterial growth or inhibition is measured by the increase/reduction of turbidity in the medium (OD600). […]

[4] = tested on: Staphylococcus aureus; assay: Minimum inhibitory concentration / antimicrobial activity against Staphylococcus aureus in vitro; type: cell-based; details: for minimum inhibitory concentration (MIC): Staphylococcus aureus
[5] = tested on: membrane potential of the bacteria
[6] = tested on: innate immune response of the skin; details: in synergy with factors originating from the host and microbiome; cited from earlier work

Question: For C=C(C)[C@@H](C)c1cc(/C=C/C(=O)c2ccc(O)cc2)c(OC)cc1O [licochalcone E], which “synergistic effect with ISW1-2 on S. aureus growth” value [1] is on record?
Answer: better synergistic effect with ISW1-2, similar to licochalcone A

Question: What about the “effect on growth of S. epidermidis (OD600)” value [2] of the same compound?
Answer: No influence on the growth of S. epidermidis was observed

Question: For COc1c(/C=C/C(=O)c2ccc(O)cc2)ccc(O)c1CC=C(C)C [licochalcone C], which “synergistic effect with ISW1-2 on S. aureus growth” value [1] is on record?
Answer: somewhat less synergistically with ISW1-2 than licochalcone A

Question: What about the “effect on growth of S. epidermidis (OD600)” value [2] of the same compound?
Answer: No influence on the growth of S. epidermidis was observed

Question: Which results are given for C=CC(C)(C)c1cc(/C=C/C(=O)c2ccc(O)cc2)c(OC)cc1O [licochalcone A]?
Answer: growth inhibition of C. acnes (OD600) ([3]; pure extract or pure licochalcone A without ISW1-2, FIGS. 1 and 2): only a minor inhibitory effect; effect on growth of S. epidermidis (OD600) [2]: No influence on the growth of S. epidermidis was observed

Question: Which “sensitivity of skin pathogens such as Staphylococcus aureus” value [4] does the source give for CC(C)C[C@H]1NC(=O)[C@H](Cc2c[nH]c3ccccc23)NC(=O)[C@@H](C(C)C)NC(=O)[C@H]2NC(SC2(C)C)[C@H](C(C)C)NC(=O)[C@@H](Cc2c[nH]c3ccccc23)NC(=O)[C@H](C(C)C)NC1=O [ISW1-2, cyclo [N-DVal-LTrp-DLeu-LVal-DTrp-LMe2Thz(LVal)-C]] here?
Answer: particularly sensitive

Question: And the “minimum inhibitory concentration (MIC)” value [4]?
Answer: 3.1 µg/mL (≈ 3.45 µM)

Question: And the “minimum inhibitory concentration (MIC)” value ([4]; 3.1 μg/ml expressed in %)?
Answer: 0.00031%

Question: And the “growth inhibition of C. acnes (OD600)” value ([3]; 0.00001% ISW1-2 alone, anaerobic, 37 °C, 5 days)?
Answer: non-inhibitory

Question: And the “growth inhibition of S. aureus (OD600)” value ([1]; 0.00002% ISW1-2 alone, 37 °C, 24 h)?
Answer: non-inhibitory

Question: What about the “growth inhibition of S. epidermidis (OD600)” value ([2]; 0.00002% ISW1-2 alone, 24 h) of the same compound?
Answer: non-inhibitory

Question: What about the mechanism of action ([5]; antibacterial effect) of the same compound?
Answer: based on proton translocation while maintaining membrane integrity

Question: And the “correlation of antibacterial effect with membrane potential drop” value ([5]; bacteria)?
Answer: correlates strongly with the drop of the membrane potential of the bacteria

Question: What about the “effect on innate immune response of the skin” value [6] of the same compound?
Answer: supports the innate immune response of the skin
